In patent US20080069809A1, “Compositions and methods for the diagnosis and treatment of cancer” (priority 2006, published 2008):

Tests used:
Assay type in all cases: cell-based
[1] = system: KG1a; experiment: Differentiation (CD11b expression) in KG1a cells; details: agent alone
Procedure: (§1) The myeloid leukemic cell lines HL60, NB60, NB4, U937, K562 and KG1a were all grown in RPMI 1640 medium (Life Technologies, Paisley, United Kingdom) supplemented with 10% v/v fetal calf serum (Sear Laboratories International Crawley, United Kingdom), 100 U/mL penicillin, and 100 μg/mL streptomycin (Sigma Aldrich, Poole, United Kingdom) at 37° C. and 5% v/v CO2. AML blasts were isolated from patient bone marrow aspirates and peripheral blood of eight patients at diagnosis or relapse. Patients were not receiving AML therapy at time of sampling. Blasts were isolated by Ficoll density centrifugation and were cultured in serum-free insulin transferrin selenium-positive (ITS+) medium (Life Technologies) containing 300 ng/mL stem cell factor (SCF) and 10 ng/mL interleukin 3 (IL3; R and D Systems, Abingdon, United Kingdom) and antibiotics. Blast purity ranged from 80% to 95%, as assessed by expression of CD34. Normal myeloblasts were isolated from cord blood or adult mobilized peripheral blood. Briefly, CD34^+ cells were indirectly selected from the mononuclear cell preparations using antibody-coated magnetic beads (Miltenyi Biotec, United Kingdom).
Cell differentiation was determined by staining of cells with anti-CD11b antibody as a general early marker of myeloid differentiation. In studies with HL60 cells, PEP005-treated and 20 nM phorbol myristate (PMA)-treated (Sigma Aldrich) cells were also assessed for their ability to phagocytose complement-coated yeast, a marker of a fully differentiated myeloid cell, as previously described (Toksoz et al, Leukemia Res 6:491-498, 1982). The ingestion of three or more yeasts was taken as a positive result. In normal cord blood or adult bone marrow myeloblasts, loss of CD34 was taken as a marker of differentiation. Isotype-matched controls were used and all antibodies were from DAKO (Cambridge, United Kingdom). […] Images were captured with a SPOT2 cameria (Diagnostic Instructions, Sterling Heights, Mich.) and analyzed using Image-Pro 4.0 software (Media Cybernetics, Silver Spring, Md.).

[2] = system: HL60; experiment: Apoptosis (sub-G1 DNA by FACS, caspase-3 activation) in HL60 leukemic cells
Procedure: as §1, with “Blast purity ranged from 80% to 95%, as assessed by expression of CD34.” left out
To determine the effects of ingenol-3-angelate (PEP005), cells were incubated for up to 5 days with medium alone or PEP005 at a range of concentrations from 0.2 nM to 20 μM. PEP005 was extracted from Euphorbia peplus and supplied as a 98.5% pure preparation by Peplin Limited (Brisbane, Australia) as a dry pellet and was made up to a stock of […] in acetone on a weekly basis. Stocks were stored at 4° C. and diluted into medium when required. Final acetone concentration was never more than 0.1% v/v. Apoptosis and differentiation were assessed after 1 to 5 days.

[3] = target: T1, PKC-δ (Homo sapiens, UniProt Q05655); experiment: PKC-δ activation by translocation (cell fractionation, Western blotting) in HL60 cells; details: 20 nM PEP005 or 20 nM PMA, 10 minutes
T1 construct: endogenous in cells; host or cells: HL60
Procedure: PKC translocates from the soluble to the particulate fraction of cells when activated and this method was used to assess activation of PKC-δ by PEP005 and PMA. Briefly, cells were incubated for 10 minutes in medium alone or 20 nM PEP005 or 20 nM PMA, washed twice in phosphate buffered saline (PBS) and then lysed by homogenization in hypotonic lysis buffer in the absence of detergent. Lysis was checked using trypan blue uptake. Nuclei were isolated by centrifugation at 1000 g for 10 minutes. Centrifugation at 100,000 g for 45 minutes at 4° C. was used to isolate the cytosol (supernatant) and cell membrane (pellet) fractions. All were taken up in SDS sample buffer and analyzed for PKC-δ by Western blotting.

[4] = system: HL60; experiment: Phagocytosis of complement-coated yeast by HL60 cells; details: after 3 days of treatment, PMA 20 nM
Procedure: Cell differentiation was determined by staining of cells with anti-CD11b antibody as a general early marker of myeloid differentiation. In studies with HL60 cells, PEP005-treated and 20 nM phorbol myristate (PMA)-treated (Sigma Aldrich) cells were also assessed for their ability to phagocytose complement-coated yeast, a marker of a fully differentiated myeloid cell, as previously described (Toksoz et al, Leukemia Res 6:491-498, 1982). The ingestion of three or more yeasts was taken as a positive result. In normal cord blood or adult bone marrow myeloblasts, loss of CD34 was taken as a marker of differentiation. Isotype-matched controls were used and all antibodies were from DAKO (Cambridge, United Kingdom). […] Cells were also used to prepare cytospins, which were then differentially stained using a commercial May-Grünwald-Ginesa stain (Diff-Kwik; Gamidor, Abingdon, United Kingdom) to identify cells with a blast or differentiated or apoptotic morphology. Slides were examined using a Zeiss III RS brightfield microscope equipped with a 40×/0.75 water-immersion objective (Carl Zeiss, Jena, Germany). Images were captured with a SPOT2 cameria (Diagnostic Instructions, Sterling Heights, Mich.) and analyzed using Image-Pro 4.0 software (Media Cybernetics, Silver Spring, Md.).

[5] = system: caspase-3; experiment: Caspase-3 phosphorylation in 32PO4-labeled HL60 cells; details: 20 nM PEP005 and 5 μM rottlerin
Procedure: To determine if PEP005 induced caspase-3 phosphorylation, HL60 cells were incubated with 1.5×10^7 Bq/mL ^32PO4 (Amersham Pharmacia) in phosphate-free medium for 3 hours prior to addition of 20 nM PEP005 or PEP005 and 5 μM rottlerin (Calbiochem, Nottingham, United Kingdom). Cells were then lysed and caspase-3 was immunoprecipitated with an anti-caspase-3 antibody (BD Pharmingen, Oxford, United Kingdom) or an irrelevant isotype-matched control antibody (DAKO) and the immunoprecipitate was isolated using an anti-mouse immunoglobulin G (IgG) antibody (DAKO) and protein G-coated magnetic beads (microbeads; Miltenyi Biotech). The isolate was taken up in SDS sample buffer and run on a 10% w/v SDS-polyacrylamide gel electrophoresis (PAGE) gel and the labeled proteins were visualized using a phosphorimager.

T1 sequence (Q05655 whole entry): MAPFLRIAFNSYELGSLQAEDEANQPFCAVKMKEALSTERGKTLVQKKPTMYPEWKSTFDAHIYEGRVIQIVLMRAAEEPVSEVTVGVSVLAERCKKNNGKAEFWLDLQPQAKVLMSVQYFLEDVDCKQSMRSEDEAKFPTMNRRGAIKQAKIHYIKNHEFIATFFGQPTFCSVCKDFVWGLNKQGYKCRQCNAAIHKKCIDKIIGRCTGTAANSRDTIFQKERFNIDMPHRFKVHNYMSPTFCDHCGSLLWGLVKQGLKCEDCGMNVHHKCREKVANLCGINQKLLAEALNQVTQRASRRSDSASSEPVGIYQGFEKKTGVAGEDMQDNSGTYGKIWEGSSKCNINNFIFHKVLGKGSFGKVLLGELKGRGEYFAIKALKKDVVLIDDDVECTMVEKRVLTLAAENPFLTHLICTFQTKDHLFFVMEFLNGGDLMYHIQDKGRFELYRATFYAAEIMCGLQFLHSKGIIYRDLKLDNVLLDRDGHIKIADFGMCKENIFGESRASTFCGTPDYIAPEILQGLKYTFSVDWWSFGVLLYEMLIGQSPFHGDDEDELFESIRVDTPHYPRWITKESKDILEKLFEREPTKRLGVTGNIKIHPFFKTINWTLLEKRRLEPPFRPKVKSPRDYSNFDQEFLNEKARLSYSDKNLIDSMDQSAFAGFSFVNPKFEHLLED

CC1=C(/C=C/C(C)=C/C=C/C(C)=C/C(=O)O)C(C)(C)CCC1 [ATRA, all-trans retinoic acid, reference compound]
differentiation response [1]: did not respond

CCCCCCCCCCCCCC(=O)O[C@@H]1[C@@H](C)[C@@]2(O)[C@@H](C=C(CO)C[C@]3(O)C(=O)C(C)=C[C@@H]23)[C@@H]2C(C)(C)[C@]12OC(C)=O [PMA, phorbol myristate, reference compound]
apoptosis (caspase-3 activity) ([2]; after 3 days of treatment, PMA 20 nM): no increase in apoptosis
site of initial PKC-δ translocation [3]: only to the cell membrane
differentiation to phagocytes (ability to phagocytose yeast) [4]: induced differentiation of HL60 cells toward phagocytes

CC(=O)c1c(O)c(C)c(O)c(Cc2c(O)c3c(c(C(=O)/C=C/c4ccccc4)c2O)OC(C)(C)C=C3)c1O [rottlerin, reference compound]
effect on PEP005-induced caspase-3 phosphorylation [5]: ablated

CN(C)CCCn1cc(C2=C(c3c[nH]c4ccccc34)C(=O)NC2=O)c2ccccc21 [bisindolylmaleimide I, reference compound]
inhibition of PEP005-induced apoptosis (caspase-3 activation) ([2]; 20 nM PEP005 with 1 μM Bis-1 or 20 nM Go6976): inhibited
